# Columns and labels:
# [1] = in vitro dissolution test of solubility-improved forms in MFD solution (microcentrifuge); type: physicochemical; details: MFD solution (PBS pH 6.5, 0.5 wt % NaTC/POPC), 37° C., 1000 μgA/mL if all dissolved
# Protocol: An in vitro dissolution test was used to determine the dissolution performance of the HPMCAS SDD. […] The test was run in duplicate. The test tubes were placed in a 37° c. temperature-controlled chamber, and an MFD solution consisting of 1.8 mL PBS at pH 6.5 and 290 mosm/kg, containing 7.3 mm sodium taurocholic acid and 1.4 mm of 1-palmitoyl-2-oleyl-sn-glycero-3-phosphocholine (0.5 wt % NaTC/POPC) was added to each tube. The samples were mixed with a vortex mixer for one minute, then centrifuged at 13,000 g and 37° C. for one minute. The resulting supernatant solution was then sampled and diluted 1:5 (by volume) with methanol and analyzed by high-performance liquid chromatography (HPLC). HPLC analysis was performed using a Zorbax SB-C8 column. The mobile phase consisted of 45% 5 mm triethanolamine, adjusted to pH 7.0, and 55% acetonitrile, with a flow rate of 1.5 mL/min. UV absorbance was measured at 254 nm. The contents of each tube were mixed on the vortex mixer and allowed to stand undisturbed at 37° C. until the next sample was taken. Samples were collected at 4, 10, 20, 40, 90, and 1200 minutes.
# The concentrations of drug obtained in these samples were used to determine the maximum dissolved concentration of drug and the area under the concentration-versus-time curve during the initial 90 minutes (MDC90 and DAUC90, respectively). […]
# [2] = in vitro membrane permeation test (maximum drug flux); type: physicochemical; details: MFD feed solution 1000 μg/mL, permeate 20 wt % decanol in decane, 37° C., fit 0 to 60 minutes
# Protocol: The NP composition was evaluated in vitro using a membrane permeation test as follows. An Accurel® PP 1 E microporous polypropylene membrane was obtained from Membrana GmbH (Wuppertal, Germany). The membrane was washed in isopropyl alcohol and rinsed in methanol in a sonicating bath for one minute at ambient temperature, and then allowed to air dry at ambient temperature. The feed side of the membrane was then plasma-treated to render it hydrophilic by placing a sample of the membrane in a plasma chamber. The atmosphere of the plasma chamber was saturated with water vapor at a pressure of 550 mTorr. A plasma was then generated using radio frequency (RF) power inductively coupled into the chamber via annular electrodes at a power setting of 50 Watts for 45 seconds. The contact angle of a drop of water placed on the surface of the plasma-treated membrane was about 40°. […]
# To form the feed solution, a 13.33 mg sample of the solid NP composition was weighed into the feed reservoir. […] Samples were then diluted in 250 μL IPA and analyzed using HPLC. […] UV absorbance was measured at 254 nm.
# The maximum flux of drug across the membrane (in units of μg/cm^2-min) was determined by performing a least-squares fit to the concentration versus time data from 0 to 60 minutes to obtain the slope, multiplying the slope by the permeate volume (5 mL), and dividing by the membrane area (4.9 cm^2).
# [3] = physchem; details: pH 7, aqueous buffer
# [4] = GastroPlus (ACAT) simulation of absorption and pharmacokinetics; details: estimated based on clinical data
# Excerpt: GastroPlus™ is a computer program that simulates absorption and pharmacokinetics for orally dosed drugs.
# GastroPlus™ was used to simulate the absorption and pharmacokinetics of the reference and test formulations.
# The drug release profiles were used by the software to calculate the drug concentration in each compartment. The estimated human permeability data were computed using a modification of the human fasted log D absorption model to account for permeability. The model then calculated the fraction of the dose absorbed based on the ACAT model using drug concentration, permeability, surface area, and transit time in each compartment. Pharmacokinetic parameters, e.g. volume of distribution, clearance, and micro-constants were added to the software in the pharmacokinetic page, which enabled the software to calculate plasma concentration—time curves.
# In the physiology page, a user-supplied physiology file was provided to the program as an input file, consisting of the following transit times for each compartment (hr): 0.1, 0.25, 0.5, 0.5, 1.0, 1.0, 1.0, 8.0, and 24.0 hr.
# The model was used to evaluate the performance of the dosage forms of the invention.
DAUC90 (area under the concentration-versus-time curve during the initial 90 minutes) [1] [min*μgA/mL],MDC90 (maximum dissolved concentration of drug during the initial 90 minutes) [1] [μgA/mL],Maximum Drug Flux [2] [μg/cm^2-min],solubility [3] [µg/mL],human permeability (Peff) [4] [×10⁻⁶ cm/s],Structure (SMILES)
4100,60,1.0,–,–,"Cc1ccc(-c2cc(C(F)(F)F)nn2-c2ccc(S(N)(=O)=O)cc2)cc1 [Crystalline celecoxib, celecoxib]"
–,–,–,11.6,112.62,Cc1ccc(-c2cc(C(F)(F)F)nn2-c2ccc(S(N)(=O)=O)cc2)cc1 [celecoxib]

# — patent publication US20100233272A1 (priority 2007, published 2010)
